Measurements published in PubChem BioAssay (NCI).
Several values for one entry are separate records, joined by “and”; a condition that tells them apart may be missing. Identical values can stand only once.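 Interpolation was linear, between the two tested concentrations surrounding the appropriate level; five concentrations were tested over 48 hours in 96-well plates. GI50 is the concentration that inhibits growth by half. TGI: concentration producing complete growth inhibition.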

Key:
Assay in all cases: NCI tumour cell line growth inhibition, 48 h
[1] = tested on: SK-MEL-2 melanoma
[2] = tested on: DLD-1 colon
[3] = tested on: CAKI-1 renal
[4] = tested on: SR leukemia
[5] = tested on: RXF 393 renal
[6] = tested on: SK-OV-3 ovarian
[7] = tested on: UACC-62 melanoma
[8] = tested on: CCRF-CEM leukemia
[9] = tested on: HCC-2998 colon
[10] = tested on: ACHN renal
[11] = tested on: OVCAR-4 ovarian
[12] = tested on: NCI-H460 lung
[13] = tested on: DMS 114 small cell lung
[14] = tested on: SNB-78 CNS
[15] = tested on: EKVX NSCLC
[16] = tested on: HOP-62 NSCLC
[17] = tested on: HOP-92 NSCLC
[18] = tested on: K-562 leukemia
[19] = tested on: HOP-18 NSCLC
[20] = tested on: SF-295 CNS
[21] = tested on: COLO 205 colon
[22] = tested on: KM12 colon
[23] = tested on: A498 renal
[24] = tested on: LXFL 529 NSCLC
[25] = tested on: SF-539 CNS
[26] = tested on: SF-268 CNS
[27] = tested on: NCI-H226 lung
[28] = tested on: U251 CNS
[29] = tested on: MOLT-4 leukemia
[30] = tested on: UO-31 renal
[31] = tested on: OVCAR-3 ovarian
[32] = tested on: RPMI-8226 leukemia
[33] = tested on: M14 melanoma
[34] = tested on: SN12C renal
[35] = tested on: SW-620 colon
[36] = tested on: UACC-257 melanoma
[37] = tested on: OVCAR-5 ovarian
[38] = tested on: MALME-3M melanoma
[39] = tested on: IGROV1 ovarian
[40] = tested on: HCT-116 colon
[41] = tested on: SK-MEL-28 melanoma
[42] = tested on: HT29 colon
[43] = tested on: A549 NSCLC
[44] = tested on: NCI-H522 lung
[45] = tested on: 786-0 renal
[46] = tested on: HCT-15 colon
[47] = tested on: LOX IMVI melanoma
[48] = tested on: SNB-19 CNS
[49] = tested on: NCI-H23 lung
[50] = tested on: OVCAR-8 ovarian
[51] = tested on: SK-MEL-5 melanoma
[52] = tested on: M19-MEL melanoma
[53] = tested on: BT-549 breast
[54] = tested on: MDA-MB-231 breast
[55] = tested on: NCI/ADR-RES ovarian
[56] = tested on: KM20L2 colon
[57] = tested on: MDA-N
[58] = tested on: TK-10 renal
[59] = tested on: MDA-MB-435
[60] = tested on: T-47D breast
[61] = tested on: HL-60(TB) leukemia
[62] = tested on: SNB-75 CNS
[63] = tested on: MCF7 breast
[64] = tested on: DMS 273 small cell lung
[65] = tested on: PC-3 prostate
[66] = tested on: XF 498 CNS
[67] = tested on: DU-145 prostate
[68] = tested on: HS 578T breast

COc1cc(/C=N/N=C(\N)NO)cc(Cl)c1O
TGI [1]: > 100 µM | TGI [2]: > 100 µM | TGI [3]: > 100 µM | TGI [4]: > 100 µM | TGI [5]: 61.7 µM | TGI [6]: > 100 µM | TGI [7]: > 100 µM | TGI [8]: > 100 µM | TGI [9]: > 100 µM | TGI [10]: > 100 µM | TGI [11]: > 100 µM | TGI [12]: > 100 µM | TGI [13]: > 100 µM | TGI [14]: > 100 µM | TGI [15]: > 100 µM | TGI [16]: > 100 µM | TGI [17]: > 100 µM | TGI [18]: > 100 µM | TGI [19]: 88.5 µM | TGI [20]: > 100 µM | TGI [21]: > 100 µM | TGI [22]: > 100 µM | TGI [23]: > 100 µM | TGI [24]: > 100 µM | TGI [25]: > 100 µM | TGI [26]: > 100 µM | TGI [27]: 81.6 µM | TGI [28]: > 100 µM | TGI [29]: > 100 µM | TGI [30]: > 100 µM | TGI [31]: > 100 µM | TGI [32]: > 100 µM | TGI [33]: > 100 µM | TGI [34]: > 100 µM | TGI [35]: > 100 µM | TGI [36]: > 100 µM | TGI [37]: > 100 µM | TGI [38]: > 100 µM | TGI [39]: > 100 µM | TGI [40]: > 100 µM | TGI [41]: > 100 µM | TGI [42]: > 100 µM | TGI [43]: > 100 µM | TGI [44]: > 100 µM | TGI [45]: > 100 µM | TGI [46]: > 100 µM | TGI [47]: > 100 µM | TGI [48]: > 100 µM | TGI [49]: > 100 µM | TGI [50]: > 100 µM | TGI [51]: > 100 µM | TGI [52]: > 100 µM

O=C1C=CC(=O)c2c1c1c(c3c2C2c4ccccc4C3c3ccccc32)C2c3ccccc3C1c1ccccc12
TGI [53]: 13.7 µM | TGI [1]: 4.25 µM | GI50 [54]: 2.02 µM | TGI [54]: 4.09 µM | GI50 [55]: 2.64 µM | TGI [55]: 6.2 µM | TGI [2]: 2.3 µM | GI50 [3]: 1.5 µM | TGI [3]: 2.83 µM and 3.25 µM | GI50 [4]: 0.386 µM | TGI [4]: > 43.4 µM | GI50 [5]: 2.33 µM | TGI [5]: 3.86 µM and 3 µM | TGI [6]: 28.6 µM | TGI [56]: 15.2 µM | GI50 [7]: 1.74 µM | TGI [7]: 4.37 µM and 4.7 µM | TGI [57]: 2.91 µM and 3.01 µM | GI50 [8]: 0.451 µM | TGI [8]: 2.93 µM | GI50 [9]: 4.91 µM | TGI [9]: 17.4 µM | GI50 [10]: 1.96 µM | TGI [10]: 3.43 µM and 3.16 µM | TGI [11]: 3.92 µM | GI50 [12]: 3.85 µM | TGI [12]: 26.8 µM | TGI [13]: 4.41 µM | TGI [14]: 3.57 µM | GI50 [15]: 6.11 µM | TGI [15]: 8.53 µM | GI50 [16]: 6.47 µM | TGI [16]: 35.1 µM | GI50 [17]: 1.65 µM | TGI [17]: 3.08 µM and 2.47 µM | GI50 [18]: 0.552 µM | TGI [18]: 3.94 µM and 10.7 µM | GI50 [20]: 3.21 µM | TGI [20]: 30.4 µM | GI50 [21]: 1.67 µM | TGI [21]: 3.66 µM and 2.86 µM | GI50 [22]: 2.49 µM | TGI [22]: 25.5 µM | TGI [23]: 11.1 µM | TGI [24]: 2.27 µM | TGI [25]: 11.5 µM | TGI [26]: 16.5 µM | TGI [58]: 3.31 µM and 3.4 µM | GI50 [27]: 1.57 µM | TGI [27]: 3.02 µM and 11.1 µM | GI50 [28]: 4.05 µM | TGI [28]: 20.5 µM | GI50 [29]: 0.393 µM | TGI [29]: > 54.5 µM | GI50 [30]: 1.62 µM | TGI [30]: 3.09 µM and 4.32 µM | TGI [59]: 3.34 µM and 3.35 µM | TGI [31]: 3.3 µM | GI50 [32]: 0.479 µM | TGI [32]: > 22.1 µM | TGI [33]: 3.29 µM and 3.12 µM | GI50 [34]: 1.43 µM | TGI [34]: 3 µM and 7.45 µM | GI50 [35]: 0.588 µM | TGI [35]: 4.82 µM and 2.16 µM | GI50 [60]: 2 µM | TGI [60]: 3.25 µM and 3.49 µM | TGI [36]: 3.58 µM | TGI [37]: 16.3 µM | TGI [38]: 3.07 µM and 3.05 µM | GI50 [39]: 2.08 µM | TGI [39]: 4.58 µM and 14.7 µM | TGI [40]: 2.85 µM and 2.91 µM | TGI [41]: 2.83 µM | GI50 [61]: 0.657 µM | TGI [61]: 4.1 µM and 4.85 µM | GI50 [42]: 1.64 µM | TGI [42]: 4.19 µM and 4.29 µM | GI50 [43]: 3.08 µM | TGI [43]: 21.9 µM | GI50 [44]: 0.254 µM | TGI [44]: 0.775 µM and 1.42 µM | TGI [45]: 2.99 µM and 2.88 µM | GI50 [46]: 1.22 µM | TGI [46]: 2.77 µM and 2.95 µM | TGI [47]: 2.91 µM and 3.08 µM | GI50 [48]: 3.62 µM | TGI [48]: 34.4 µM | TGI [62]: 24.4 µM | GI50 [49]: 1.81 µM | TGI [49]: 4.36 µM and 6.61 µM | GI50 [50]: 2.78 µM | TGI [50]: 2.94 µM | GI50 [63]: 2.58 µM | TGI [63]: 3.29 µM and 7.55 µM | TGI [64]: 4.08 µM | GI50 [65]: 9.64 µM | TGI [65]: 3.37 µM and 21.6 µM | GI50 [51]: 1.52 µM | TGI [51]: 3.11 µM and 6.21 µM | TGI [66]: 3.34 µM | TGI [52]: 3.6 µM | TGI [67]: 28.4 µM | GI50 [68]: 2.38 µM | TGI [68]: 6.24 µM
